Columns and labels:
Format in all cases: cell-based
human TLR7 = biological target: T1, human TLR7 (Homo sapiens, UniProt Q9NYK1); experiment: TLR7 inhibition reporter assay (HEK-Blue SEAP reporter, gardiquimod stimulation); conditions: HEK-Blue cells overexpressing human TLR7, SEAP reporter, gardiquimod 7.5 μM, 22 hour incubation
T1 construct: host or cells: HEK-Blue cells
T1 sequence (Q9NYK1 27-1049): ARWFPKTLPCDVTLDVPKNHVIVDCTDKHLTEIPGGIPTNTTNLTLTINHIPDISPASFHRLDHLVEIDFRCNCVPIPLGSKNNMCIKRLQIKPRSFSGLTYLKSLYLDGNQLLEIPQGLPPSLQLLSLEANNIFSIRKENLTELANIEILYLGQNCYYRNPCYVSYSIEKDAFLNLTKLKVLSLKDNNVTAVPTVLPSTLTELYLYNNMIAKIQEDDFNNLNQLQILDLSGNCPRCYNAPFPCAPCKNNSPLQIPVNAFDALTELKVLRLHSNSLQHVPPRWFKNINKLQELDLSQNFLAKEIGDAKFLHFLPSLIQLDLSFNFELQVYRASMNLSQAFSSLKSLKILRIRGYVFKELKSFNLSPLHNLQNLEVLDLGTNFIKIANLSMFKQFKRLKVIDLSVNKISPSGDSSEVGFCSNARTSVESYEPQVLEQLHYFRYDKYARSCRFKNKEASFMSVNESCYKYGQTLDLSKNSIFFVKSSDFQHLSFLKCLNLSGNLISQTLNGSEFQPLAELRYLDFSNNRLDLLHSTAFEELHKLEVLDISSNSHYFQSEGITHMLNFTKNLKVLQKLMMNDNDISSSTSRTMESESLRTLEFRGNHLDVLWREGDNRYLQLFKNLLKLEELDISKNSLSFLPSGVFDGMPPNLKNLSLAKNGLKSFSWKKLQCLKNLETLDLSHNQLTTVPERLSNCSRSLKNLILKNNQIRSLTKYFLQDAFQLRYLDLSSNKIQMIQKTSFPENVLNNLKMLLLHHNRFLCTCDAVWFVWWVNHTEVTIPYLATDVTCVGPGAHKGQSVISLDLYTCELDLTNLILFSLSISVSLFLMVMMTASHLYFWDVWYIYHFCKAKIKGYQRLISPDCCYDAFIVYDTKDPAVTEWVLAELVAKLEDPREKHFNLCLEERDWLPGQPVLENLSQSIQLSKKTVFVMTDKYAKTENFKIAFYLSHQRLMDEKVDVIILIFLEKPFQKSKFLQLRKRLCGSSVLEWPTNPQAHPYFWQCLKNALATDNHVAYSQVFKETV
Summary of the method: (§1)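 Dose–response from 0.05 nM to 50 μM was run in HEK-Blue human TLR7, TLR8 and TLR9 reporter cells. After 30 min at room temperature with compound, ligand was added (TLR7 gardiquimod 7.5 μM; TLR8 R848 15.9 μM; TLR9 ODN2006 5 nM) and SEAP measured next day, at 22 h.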

human TLR8 = biological target: T2, human TLR8 (Homo sapiens, UniProt Q9NR97); experiment: TLR8 inhibition reporter assay (HEK-Blue SEAP reporter, R848 stimulation); conditions: HEK-Blue cells overexpressing human TLR8, SEAP reporter, R848 15.9 μM, 22 hour incubation
T2 construct: host or cells: HEK-Blue cells
T2 sequence (Q9NR97 27-1041): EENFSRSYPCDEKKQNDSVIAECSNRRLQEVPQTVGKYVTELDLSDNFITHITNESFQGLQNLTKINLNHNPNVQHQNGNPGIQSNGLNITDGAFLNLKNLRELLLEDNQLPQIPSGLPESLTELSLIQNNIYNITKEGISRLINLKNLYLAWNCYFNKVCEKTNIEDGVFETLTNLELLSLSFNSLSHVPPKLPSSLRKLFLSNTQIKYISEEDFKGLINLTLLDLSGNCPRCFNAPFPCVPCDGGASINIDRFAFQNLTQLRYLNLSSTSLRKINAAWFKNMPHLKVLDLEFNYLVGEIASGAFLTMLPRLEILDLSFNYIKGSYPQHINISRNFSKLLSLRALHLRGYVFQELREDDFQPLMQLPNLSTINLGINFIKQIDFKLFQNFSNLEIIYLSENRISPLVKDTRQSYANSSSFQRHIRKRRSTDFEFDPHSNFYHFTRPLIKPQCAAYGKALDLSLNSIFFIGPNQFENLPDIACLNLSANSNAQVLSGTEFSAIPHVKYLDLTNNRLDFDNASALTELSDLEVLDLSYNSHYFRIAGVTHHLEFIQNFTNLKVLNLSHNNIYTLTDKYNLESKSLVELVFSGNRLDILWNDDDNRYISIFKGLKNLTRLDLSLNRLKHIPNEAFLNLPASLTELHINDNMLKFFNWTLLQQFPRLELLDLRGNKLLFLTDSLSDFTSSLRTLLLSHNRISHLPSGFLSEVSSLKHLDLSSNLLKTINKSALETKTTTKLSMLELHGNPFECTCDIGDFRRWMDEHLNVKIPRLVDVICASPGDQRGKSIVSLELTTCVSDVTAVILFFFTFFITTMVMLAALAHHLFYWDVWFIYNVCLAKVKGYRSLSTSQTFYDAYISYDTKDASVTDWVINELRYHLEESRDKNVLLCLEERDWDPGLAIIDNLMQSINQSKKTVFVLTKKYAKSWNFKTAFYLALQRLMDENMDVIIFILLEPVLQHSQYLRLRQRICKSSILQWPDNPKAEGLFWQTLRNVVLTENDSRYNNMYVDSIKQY
Summary of the method: as §1

human TLR9 = biological target: T3, human TLR9 (Homo sapiens, UniProt Q9NR96); experiment: TLR9 inhibition reporter assay (HEK-Blue SEAP reporter, ODN2006 stimulation); conditions: HEK-Blue cells overexpressing human TLR9, SEAP reporter, ODN2006 5 nM, 22 hour incubation
T3 construct: host or cells: HEK-Blue cells
T3 sequence (Q9NR96 26-1032): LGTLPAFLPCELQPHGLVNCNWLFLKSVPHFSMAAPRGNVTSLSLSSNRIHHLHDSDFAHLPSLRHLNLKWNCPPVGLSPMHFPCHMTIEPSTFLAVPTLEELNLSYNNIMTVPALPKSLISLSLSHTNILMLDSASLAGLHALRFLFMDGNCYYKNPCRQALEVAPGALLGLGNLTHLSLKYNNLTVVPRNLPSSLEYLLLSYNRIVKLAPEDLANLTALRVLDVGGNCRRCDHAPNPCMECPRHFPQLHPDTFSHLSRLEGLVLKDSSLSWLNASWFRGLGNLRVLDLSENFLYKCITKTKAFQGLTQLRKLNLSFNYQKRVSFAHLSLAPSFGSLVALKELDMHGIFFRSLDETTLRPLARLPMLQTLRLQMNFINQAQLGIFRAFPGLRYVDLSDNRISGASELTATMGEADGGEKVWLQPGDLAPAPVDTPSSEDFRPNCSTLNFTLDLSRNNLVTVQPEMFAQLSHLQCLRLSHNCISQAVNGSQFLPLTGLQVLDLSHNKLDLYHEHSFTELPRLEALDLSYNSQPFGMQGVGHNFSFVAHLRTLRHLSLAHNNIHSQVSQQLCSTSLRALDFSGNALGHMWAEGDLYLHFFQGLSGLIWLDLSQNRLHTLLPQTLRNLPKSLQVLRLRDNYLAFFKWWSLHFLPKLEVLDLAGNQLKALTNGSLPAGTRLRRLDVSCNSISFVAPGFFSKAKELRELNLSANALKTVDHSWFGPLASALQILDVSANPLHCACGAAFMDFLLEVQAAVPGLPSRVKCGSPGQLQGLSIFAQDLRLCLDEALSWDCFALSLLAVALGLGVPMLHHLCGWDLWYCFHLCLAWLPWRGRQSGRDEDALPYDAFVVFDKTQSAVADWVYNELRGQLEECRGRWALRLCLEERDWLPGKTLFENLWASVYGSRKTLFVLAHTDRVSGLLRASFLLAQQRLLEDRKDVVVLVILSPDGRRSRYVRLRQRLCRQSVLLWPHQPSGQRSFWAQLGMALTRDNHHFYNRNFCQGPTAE
Summary of the method: as §1

Row | SMILES | IC50 (human TLR7) [nM] | IC50 (human TLR8) [nM] | IC50 (human TLR9) [nM]
1 | Cc1cc(-c2[nH]c3ccc(C4CCN(CC(=O)NCC(C)(C)O)CC4)cc3c2C(C)C)cn(C)c1=O [Example 124, 2-(4-(2-(1,5-dimethyl-6-oxo-1,6-dihydropyridin-3-yl)-3-isopropyl-1H-indol-5-yl)piperidin-1-yl)-N-(2-hydroxy-2-methylpropyl)acetamide] | 9.7 | 11.3 | ≥ 50000
2 | CC(C)c1c(-c2cc(Cl)c(=O)n(C)c2)[nH]c2ccc(C3CCNCC3)cc12 [Example 22, 3-chloro-5-(3-isopropyl-5-(piperidin-4-yl)-1H-indol-2-yl)-1-methylpyridin-2(1H)-one] | 1.1 | 10.7 | 2550
3 | Cc1cc(-c2[nH]c3ccc(C4CCN(CC(=O)N(C)C)CC4)cc3c2C(C)C)cn(C)c1=O [Example 71, 2-(4-(2-(1,5-dimethyl-6-oxo-1,6-dihydropyridin-3-yl)-3-isopropyl-1H-indol-5-yl)piperidin-1-yl)-N,N-dimethylacetamide] | 2.8 | 5.1 | 11000
4 | Cc1cc(-c2[nH]c3ccc(C4CCN(C(C)(C)C(N)=O)CC4)cc3c2C(C)C)cn(C)c1=O [Example 151, 2-(4-(2-(1,5-dimethyl-6-oxo-1,6-dihydropyridin-3-yl)-3-isopropyl-1H-indol-5-yl)piperidin-1-yl)-2-methylpropanamide] | 1.2 | 13.7 | 11000
5 | Cc1c(-c2[nH]c3ccc(C4CCN(CC#N)CC4)cc3c2C(C)C)cn(C)c(=O)c1Cl [Example 96, 2-(4-(2-(5-chloro-1,4-dimethyl-6-oxo-1,6-dihydropyridin-3-yl)-3-isopropyl-1H-indol-5-yl)piperidin-1-yl)acetonitrile] | 2 | 14.3 | 2860
6 | Cc1cc(-c2[nH]c3ccc(C4CCN(C5CCC(F)(F)CC5)CC4)cc3c2C(C)C)cn(C)c1=O [Example 199, 5-(5-(1-(4,4-difluorocyclohexyl)piperidin-4-yl)-3-isopropyl-1H-indol-2-yl)-1,3-dimethylpyridin-2(1H)-one] | 1.9 | 4.2 | 1550
7 | CNC(=O)CN1CCC(c2ccc3[nH]c(-c4cn(C)c(=O)c(C)c4C)c(C(C)C)c3c2)CC1 [Example 135, 2-(4-(3-isopropyl-2-(1,4,5-trimethyl-6-oxo-1,6-dihydropyridin-3-yl)-1H-indol-5-yl)piperidin-1-yl)-N-methylacetamide] | 5.3 | 5.6 | 19000

Next, values leading:

Row | IC50 (human TLR7) [nM] | IC50 (human TLR8) [nM] | IC50 (human TLR9) [nM] | SMILES
8 | 1 | 3.7 | 2590 | Cc1c(-c2[nH]c3ccc(C4CCN(C)CC4)cc3c2C(C)C)cn(C)c(=O)c1Cl [Example 240, 3-chloro-5-(3-isopropyl-5-(1-methylpiperidin-4-yl)-1H-indol-2-yl)-1,4-dimethylpyridin-2(1H)-one]
9 | 18.9 | 2.6 | 4490 | Cc1c(-c2[nH]c3ccc(C4CCN(C5CCOCC5)CC4)cc3c2C(C)C)cn(C)c(=O)c1C [Example 206, 5-(3-isopropyl-5-(1-(tetrahydro-2H-pyran-4-yl)piperidin-4-yl)-1H-indol-2-yl)-1,3,4-trimethylpyridin-2(1H)-one]
10 | 24.5 | 1.4 | 2780 | Cc1c(-c2[nH]c3ccc(C4CCN(C5CCOCC5)CC4)cc3c2C(C)C)cc(C#N)c(=O)n1C [Example 220, 5-(3-isopropyl-5-(1-(tetrahydro-2H-pyran-4-yl)piperidin-4-yl)-1H-indol-2-yl)-1,6-dimethyl-2-oxo-1,2-dihydropyridine-3-carbonitrile]
11 | 2 | 22.1 | 5650 | Cc1c(-c2[nH]c3ccc(C4CCN(S(=O)(=O)CCN5CCCC5)CC4)cc3c2C(C)C)cn(C)c(=O)c1Cl [Example 308, 3-chloro-5-(3-isopropyl-5-(1-((2-(pyrrolidin-1-yl)ethyl)sulfonyl)piperidin-4-yl)-1H-indol-2-yl)-1,4-dimethylpyridin-2(1H)-one]
12 | 7.2 | 11.8 | 8330 | Cc1c(-c2[nH]c3ccc(C4CCN(C(C)C)CC4)cc3c2C(C)C)cn(C)c(=O)c1Cl [Example 238, 3-chloro-5-(3-isopropyl-5-(1-isopropylpiperidin-4-yl)-1H-indol-2-yl)-1,4-dimethylpyridin-2(1H)-one]
13 | 11 | 97.5 | ≥ 50000 | Cc1cc(-c2[nH]c3ccc(C4CCN(C(=O)C[C@H](C)O)CC4)cc3c2C(C)C)cn(C)c1=O [Example 305, (S)-5-(5-(1-(3-hydroxybutanoyl)piperidin-4-yl)-3-isopropyl-1H-indol-2-yl)-1,3-dimethylpyridin-2(1H)-one]
14 | 48 | 9.1 | 22300 | Cc1c(-c2[nH]c3ccc(C4CCN(C5COC5)CC4)cc3c2C(C)C)cc(C#N)c(=O)n1C [Example 219, 5-(3-isopropyl-5-(1-(oxetan-3-yl)piperidin-4-yl)-1H-indol-2-yl)-1,6-dimethyl-2-oxo-1,2-dihydropyridine-3-carbonitrile]

Reference: US11447466B2, “Substituted indole compounds useful as inhibitors of TLR7/8/9” (BRISTOL-MYERS SQUIBB COMPANY, priority 2017, dated 2022)
